Results taken from patent publication EP0716856B1, “Therapeutic uses of 2',5'-oligoadenylate derivatives” (Temple University of the Commonwealth System of Higher …, priority 1988, dated 1989).

Molecular target: T1, HIV-1 reverse transcriptase (Human immunodeficiency virus type 1 group M subtype B, UniProt P04585)
T1 construct: used as a source of HIV-1 reverse transcriptase; endogenous in cells; host or cells: Virions pelleted from conditioned supernatant of H9 cells infected with HTLV-IIIB, lysed with Triton X-100
Experiment: Inhibition of HIV-1 reverse transcriptase activity in vitro (viral lysate, poly(A).(dT)15 template-primer, [3H]dTTP incorporation)
Assay type: biochemical
Settings: Concentration 400 micromolar; 37°C, 1 h; read-out: Percent Inhibition
Protocol: Reverse Transcriptase Assays. Virus was concentrated from cell-free ([…]) conditioned H9/HTLV-IIIB culture supernatants by centrifugation at 18,000 r.p.m. for 4 h at 20°C in a Beckman JA-20 rotor. A viral pellet obtained from 50 ml of conditioned culture fluid was dissolved in 0.5 mL of a solution containing 17 mM Tris-HCl (pH 7.8), 3mM dithiothreitol (DTT), 55 mM KC1, 0.32% w/v Triton X-100, and 33% glycerol. This viral lysate was stored at -20°C and was used as a source of HIV-1 reverse transcriptase. Reverse transcriptase reactions were performed in 100 µL reaction volumes containing 40 mM Tris-HC1 (pH 7.8), 4 mM DTT, 50 mM KCl, 10 mM MgCl2, 0.0325% w/v Triton X-100, 3 micromolar [^33H]dTTP (80 Ci/mmol,NEN) and poly (A).(dT)15 (2.5 microgram/mL) template-primer after the addition of 10 microliter enzyme. Inhibitors were added at various concentrations after adjusting water volumes so that reaction volumes remained constant. Reactions were incubated at 37°C for 1 h in a humidified environment and terminated by adding 2 mL of 10% cold trichloroacetic acid. Precipitate was collected on 0.45 µm cellulose-acetate Millipore filters which were then dissolved in 10 mL of 3a70B aqueous scintillant and the counts per minute quantitated using a Beckman LS 6800 liquid scintillation spectrometer.

Compound	inhibition at 400 µM
Nc1ncnc2c1ncn2[C@@H]1O[C@H](CO)C[C@H]1O [cordycepin (C), 3'-deoxyadenosine]	0%
Nc1ncnc2c1ncn2[C@@H]1O[C@H](CO)[C@@H](O)[C@H]1O [(adenosine) A, adenosine]	0%
